Laboratory results: US9682940B2, “Indazole derivatives useful as CB-1 inverse agonists” (Janssen Pharmaceutica NV, priority 2015, dated 2017)

What was measured:
[1] = molecular target: Human CB1R (Cannabanoid receptor 1) (Homo sapiens (Human), UniProt P21554); assay: CB-1 in vitro cAMP (HTRF) assay in HEK-293 cells; assay type: cell-based; details: HEK-293 cells stably transfected with human CB1R, 250 nM Forskolin, mean where tested more than once, read-out: CB-1 (HEK_cAMP) EC50
In short: (§1)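 HEK-293 cells stably expressing human CB1 or CB2 plated overnight, then tested in HBSS/5 mM HEPES/0.1% BSA with 0.5 mM IBMX and forskolin (1.5 μM working dilution). Intracellular cAMP quantified by competitive HTRF immunoassay (d2-cAMP, cryptate anti-cAMP) against a cAMP standard curve; compounds as 1/3 serial dilutions from 10 mM DMSO stocks.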

[2] = molecular target: Human CB2R (Cannabanoid receptor 2) (Homo sapiens (Human), UniProt P34972); assay: CB-2 in vitro cAMP (HTRF) assay in HEK-293 cells; assay type: cell-based; details: HEK-293 cells stably transfected with human CB2R, 250 nM Forskolin, mean where tested more than once, read-out: CB-2 (HEK_cAMP) EC50
Chain of Human CB2R (Cannabanoid receptor 2) (P34972 whole entry): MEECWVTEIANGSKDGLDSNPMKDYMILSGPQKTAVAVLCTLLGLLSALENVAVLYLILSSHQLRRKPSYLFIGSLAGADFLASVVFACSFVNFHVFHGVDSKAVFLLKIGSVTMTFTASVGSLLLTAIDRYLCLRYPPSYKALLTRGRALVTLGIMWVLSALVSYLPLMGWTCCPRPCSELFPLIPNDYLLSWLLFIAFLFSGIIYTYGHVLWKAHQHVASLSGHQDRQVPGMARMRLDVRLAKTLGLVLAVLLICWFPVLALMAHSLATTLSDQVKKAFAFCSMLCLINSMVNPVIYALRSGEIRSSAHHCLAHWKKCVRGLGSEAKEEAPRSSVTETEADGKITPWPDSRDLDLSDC
In short: as §1

Chain of Human CB1R (Cannabanoid receptor 1) (P21554 whole entry): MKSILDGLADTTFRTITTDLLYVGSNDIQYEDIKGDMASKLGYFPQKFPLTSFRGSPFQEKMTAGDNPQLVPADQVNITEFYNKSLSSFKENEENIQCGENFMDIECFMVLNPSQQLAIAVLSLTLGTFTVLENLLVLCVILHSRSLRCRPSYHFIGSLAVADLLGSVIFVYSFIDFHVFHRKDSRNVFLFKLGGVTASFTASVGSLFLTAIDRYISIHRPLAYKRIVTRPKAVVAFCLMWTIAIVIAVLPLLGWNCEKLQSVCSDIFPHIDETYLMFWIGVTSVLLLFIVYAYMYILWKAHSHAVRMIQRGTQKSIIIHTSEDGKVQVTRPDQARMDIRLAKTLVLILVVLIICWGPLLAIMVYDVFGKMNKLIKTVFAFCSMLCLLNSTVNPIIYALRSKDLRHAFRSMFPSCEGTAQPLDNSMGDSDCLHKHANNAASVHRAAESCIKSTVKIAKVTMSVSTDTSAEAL

Row | Structure (SMILES) | EC50 [1] | EC50 [2]
1 | NC(=O)COc1ccc(N2CCC(c3nn(C4CC4)c4ccc(C(c5ccc(Cl)cc5)c5ccc(Cl)cc5)cc34)CC2)cc1 [Compound 175] | 1.13 µM | > 10 µM
2 | O=C(O)c1cccc(N2CCC(c3nn(C4CC4)c4ccc(C(c5ccc(Cl)cc5)c5ccc(Cl)cc5)cc34)CC2)c1 [Compound 178] | 0.324 µM | > 10 µM
3 | O=C(O)Cc1cccc(N2CCC(c3nn(C4CC4)c4ccc(C(c5ccc(Cl)cc5)c5ccc(Cl)cc5)cc34)CC2)c1 [Compound 180] | 6.55 µM | > 10 µM
4 | O=C(O)Cc1ccc(N2CCC(c3nn(C4CC4)c4ccc(C(c5ccc(Cl)cc5)c5ccc(Cl)cc5)cc34)CC2)cc1 [Compound 181] | 7.8 µM | > 10 µM
5 | NC(=O)Cc1ccc(N2CCC(c3nn(C4CC4)c4ccc(C(c5ccc(Cl)cc5)c5ccc(Cl)cc5)cc34)CC2)cc1 [Compound 182] | 0.271 µM | > 10 µM
6 | O=C(O)Cc1cccc(N2CCC(c3c4cc(C(c5ccc(Cl)cc5)c5ccc(Cl)cc5)ccc4nn3C3CC3)CC2)c1 [Compound 185] | 0.833 µM | > 10 µM
7 | O=C(O)c1ccc(C(O)(c2ccc(Cl)cc2)c2ccc3[nH]nc(C4CCN(S(=O)(=O)C(F)(F)F)CC4)c3c2)cc1 (stereo not drawn) [Compound 187] | 3.04 µM | > 10 µM
8 | NC(=O)Cc1cccc(N2CCC(c3nn(C4CC4)c4ccc(C(c5ccc(Cl)cc5)c5ccc(Cl)cc5)cc34)CC2)c1 [Compound 190] | 1.08 µM | > 10 µM
9 | O=C(O)COc1cccc(N2CCC(c3nn(C4CC4)c4ccc(C(c5ccc(Cl)cc5)c5ccc(Cl)cc5)cc34)CC2)c1 [Compound 191] | 5.29 µM | > 10 µM
10 | O=C(O)COc1ccc(N2CCC(c3nn(C4CC4)c4ccc(C(c5ccc(Cl)cc5)c5ccc(Cl)cc5)cc34)CC2)cc1 [Compound 192] | 7.08 µM | > 10 µM
11 | O=C(O)c1ccc(N2CCC(c3c4cc(C(c5ccc(Cl)cc5)c5ccc(Cl)cc5)ccc4nn3C3CC3)CC2)cc1 [Compound 193] | 0.474 µM | 9.3 µM
12 | O=C(O)COc1ccc(N2CCC(c3c4cc(C(c5ccc(Cl)cc5)c5ccc(Cl)cc5)ccc4nn3C3CC3)CC2)cc1 [Compound 196] | 4.18 µM | > 10 µM
13 | O=C(O)c1ccc(S(=O)(=O)N2CCC(c3c4cc(C(c5ccc(Cl)cc5)c5ccc(Cl)cc5)ccc4nn3C3CC3)CC2)cc1F [Compound 200] | 0.624 µM | > 10 µM
14 | CC(C)(O)Cn1nc(C2CCN(S(=O)(=O)C(F)(F)F)CC2)c2cc(C(c3ccc(Cl)cc3)c3ccc(Cl)cc3)ccc21 [Compound 201] | 2.64 µM | > 10 µM
15 | O=C(O)c1ccc(CN2CCC(c3nn(C4CC4)c4ccc(C(c5ccc(Cl)cc5)c5ccc(Cl)cc5)cc34)CC2)cc1 [Compound 209] | 0.068 µM | > 10 µM
16 | NC(=O)c1ccc(CN2CCC(c3nn(C4CC4)c4ccc(C(c5ccc(Cl)cc5)c5ccc(Cl)cc5)cc34)CC2)cc1 [Compound 210] | 0.134 µM | > 10 µM

Row | Structure (SMILES) | EC50 [1] | EC50 [2]
17 | O=C(O)COc1ccc(N2CCC(c3n[nH]c4ccc(C(c5ccc(Cl)cc5)c5ccc(Cl)cc5)cc34)CC2)cc1 [Compound 211] | 4.69 µM | > 10 µM
18 | O=C(O)c1cccc(N2CCC(c3n[nH]c4ccc(C(c5ccc(Cl)cc5)c5ccc(Cl)cc5)cc34)CC2)c1 [Compound 212] | 1.83 µM | > 10 µM
19 | O=C(O)c1ccc(N2CCC(c3n[nH]c4ccc(C(c5ccc(Cl)cc5)c5ccc(Cl)cc5)cc34)CC2)cc1 [Compound 213] | 0.367 µM | > 10 µM
20 | O=C(O)Cc1cccc(N2CCC(c3n[nH]c4ccc(C(c5ccc(Cl)cc5)c5ccc(Cl)cc5)cc34)CC2)c1 [Compound 214] | 3.24 µM | > 10 µM
21 | O=C(O)Cc1ccc(N2CCC(c3n[nH]c4ccc(C(c5ccc(Cl)cc5)c5ccc(Cl)cc5)cc34)CC2)cc1 [Compound 215] | 2.96 µM | > 10 µM
22 | O=C(O)COc1cccc(N2CCC(c3n[nH]c4ccc(C(c5ccc(Cl)cc5)c5ccc(Cl)cc5)cc34)CC2)c1 [Compound 216] | 1.28 µM | > 10 µM
23 | NC(=O)COc1ccc(N2CCC(c3n[nH]c4ccc(C(c5ccc(Cl)cc5)c5ccc(Cl)cc5)cc34)CC2)cc1 [Compound 217] | 1.03 µM | 4.1 µM
24 | NC(=O)c1cccc(N2CCC(c3n[nH]c4ccc(C(c5ccc(Cl)cc5)c5ccc(Cl)cc5)cc34)CC2)c1 [Compound 218] | 0.265 µM | > 10 µM
25 | O=S(=O)(C(F)F)N1CCC(c2n[nH]c3ccc(C(c4ccc(Cl)cc4)c4ccc(Cl)cc4)cc23)CC1 [Compound 219] | 1.54 µM | > 10 µM
26 | NC(=O)c1cccc(CN2CCC(c3n[nH]c4ccc(C(c5ccc(Cl)cc5)c5ccc(Cl)cc5)cc34)CC2)c1 [Compound 220] | 0.027 µM | > 10 µM
27 | O=C(O)c1ccc(CN2CCC(c3n[nH]c4ccc(C(c5ccc(Cl)cc5)c5ccc(Cl)cc5)cc34)CC2)cc1 [Compound 221] | 0.134 µM | > 42 µM
28 | NC(=O)c1ccc(CN2CCC(c3n[nH]c4ccc(C(c5ccc(Cl)cc5)c5ccc(Cl)cc5)cc34)CC2)cc1 [Compound 222] | 0.163 µM | > 10 µM
29 | NC(=O)Cc1ccc(N2CCC(c3n[nH]c4ccc(C(c5ccc(Cl)cc5)c5ccc(Cl)cc5)cc34)CC2)cc1 [Compound 223] | 0.699 µM | > 10 µM
30 | NC(=O)COc1ccc(N2CCC(c3n[nH]c4ccc(C(c5ccc(Cl)cc5)c5ccc(Cl)cc5)cc34)CC2)cc1 [Compound 224] | 2.08 µM | > 10 µM
31 | O=C(O)c1cccc(CN2CCC(c3n[nH]c4ccc(C(c5ccc(Cl)cc5)c5ccc(Cl)cc5)cc34)CC2)c1 [Compound 225] | 0.056 µM | 3.3 µM

The remaining molecules from weak to strong by EC50 [1], led by results:

Row | EC50 [1] | EC50 [2] | Structure (SMILES)
32 | 0.169 µM | > 10 µM | CC(O)Cn1nc(C2CCN(S(=O)(=O)C(F)(F)F)CC2)c2cc(C(c3ccc(Cl)cc3)c3ccc(Cl)cc3)ccc21 (stereo not drawn) [Compound 202]
33 | 0.158 µM | > 10 µM | NC(=O)COc1cccc(N2CCC(c3nn(C4CC4)c4ccc(C(c5ccc(Cl)cc5)c5ccc(Cl)cc5)cc34)CC2)c1 [Compound 199]
34 | 0.15 µM | > 10 µM | O=C(O)c1ccc(N2CCC(c3nn(C4CC4)c4ccc(C(c5ccc(Cl)cc5)c5ccc(Cl)cc5)cc34)CC2)cc1 [Compound 198]
35 | 0.093 µM | > 10 µM | NC(=O)c1cccc(N2CCC(c3nn(C4CC4)c4ccc(C(c5ccc(Cl)cc5)c5ccc(Cl)cc5)cc34)CC2)c1 [Compound 179]
36 | 0.077 µM | > 10 µM | O=C(O)c1cccc(N2CCC(c3c4cc(C(c5ccc(Cl)cc5)c5ccc(Cl)cc5)ccc4nn3C3CC3)CC2)c1 [Compound 183]
37 | 0.068 µM | > 10 µM | NC(=O)c1ccc(N2CCC(c3n[nH]c4ccc(C(c5ccc(Cl)cc5)c5ccc(Cl)cc5)cc34)CC2)cc1 [Compound 208]
38 | 0.059 µM | > 10 µM | NC(=O)Cc1ccc(N2CCC(c3c4cc(C(c5ccc(Cl)cc5)c5ccc(Cl)cc5)ccc4nn3C3CC3)CC2)cc1 [Compound 186]
39 | 0.053 µM | > 10 µM | O=C(O)Cc1ccc(N2CCC(c3c4cc(C(c5ccc(Cl)cc5)c5ccc(Cl)cc5)ccc4nn3C3CC3)CC2)cc1 [Compound 203]
40 | 0.048 µM | > 10 µM | NC(=O)c1ccc(N2CCC(c3c4cc(C(c5ccc(Cl)cc5)c5ccc(Cl)cc5)ccc4nn3C3CC3)CC2)cc1 [Compound 194, 4-(4-(5-(bis(4-chlorophenyl)methyl)-2-cyclopropyl-2H-indazol-3-yl)piperidin-1-yl)benzamide]
41 | 0.032 µM | 6.99 µM | NC(=O)COc1cccc(N2CCC(c3c4cc(C(c5ccc(Cl)cc5)c5ccc(Cl)cc5)ccc4nn3C3CC3)CC2)c1 [Compound 195, 2-(3-(4-(5-(bis(4-chlorophenyl)methyl)-2-cyclopropyl-2H-indazol-3-yl)piperidin-1-yl)phenoxy)acetamide]
42 | 0.032 µM | 7.1 µM | NC(=O)COc1ccc(N2CCC(c3c4cc(C(c5ccc(Cl)cc5)c5ccc(Cl)cc5)ccc4nn3C3CC3)CC2)cc1 [Compound 197, 2-(4-(4-(5-(bis(4-chlorophenyl)methyl)-2-cyclopropyl-2H-indazol-3-yl)piperidin-1-yl)phenoxy)acetamide]
43 | 0.026 µM | > 10 µM | NC(=O)c1cccc(N2CCC(c3c4cc(C(c5ccc(Cl)cc5)c5ccc(Cl)cc5)ccc4nn3C3CC3)CC2)c1 [Compound 184, 3-(4-(5-(bis(4-chlorophenyl)methyl)-2-cyclopropyl-2H-indazol-3-yl)piperidin-1-yl)benzamide]
44 | 0.023 µM | > 10 µM | NC(=O)c1ccc(N2CCC(c3nn(C4CC4)c4ccc(C(c5ccc(Cl)cc5)c5ccc(Cl)cc5)cc34)CC2)cc1 [Compound 189]
45 | 0.019 µM | > 10 µM | O=C(O)c1ccc(-n2nc(C3CCN(S(=O)(=O)C(F)(F)F)CC3)c3cc(C(c4ccc(Cl)cc4)c4ccc(Cl)cc4)ccc32)cc1 [Compound 204]
46 | 0.008 µM | 5.5 µM | Nc1ccc(C(c2ccc(Cl)cc2)c2ccc3[nH]nc(N4CCN(S(=O)(=O)C(F)(F)F)CC4)c3c2)cc1 (stereo not drawn) [Compound 226]
47 | 0.006 µM | 2.12 µM | NC(=O)c1ccc(-n2nc(C3CCN(S(=O)(=O)C(F)(F)F)CC3)c3cc(C(c4ccc(Cl)cc4)c4ccc(Cl)cc4)ccc32)cc1 [Compound 205]
48 | 0.005 µM | > 10 µM | CNC(=O)c1ccc(S(=O)(=O)N2CCC(c3c4cc(C(c5ccc(Cl)cc5)c5ccc(Cl)cc5)ccc4nn3C3CC3)CC2)cc1F [Compound 176, 4-(4-(5-(bis(4-chlorophenyl)methyl)-2-cyclopropyl-2H-indazol-3-yl)piperidin-1-ylsulfonyl)-2-fluoro-N-methylbenzamide]
